Test results published in patent publication US11472723B2, “Method for removing heavy metals from an aqueous solution” (NEWSOUTH INNOVATIONS PTY LIMITED, priority 2016, dated 2022).
Values after ≈ are worked out from the molar mass of the structure shown. Values joined by “and” are separate entries in the source; they are usually repeats but may differ in a detail not shown here. Equal values may be shown once. Read-outs that look alike come from different tables or passages of the source. Marks after values point to notes of the source that are not given here. Each block holds one compound with its values, some of them ahead of it.

How the values were obtained:
Foaming test = assay type: physicochemical; conditions: about one tenth of CMC in water, shaken with air, Passed/Failed
Method: A foaming test was performed by dissolving the test compound in water at a concentration of approximately one tenth of the CMC of the test compound. The solution was then placed in a stoppered vessel with air and shaken and a visual observation made as to whether a stable foam had been formed.

Solubility in water = conditions: for Solubility in water up to minimum 0.01M: Yes/No
[1] = Critical micelle concentration (CMC) in water; assay type: physicochemical
From the text: In the bulk aqueous phase, surfactants form aggregates, such as micelles, at concentrations above the critical micelle concentration (CMC), where the hydrophobic tails form the core of the aggregate and the hydrophilic heads are in contact with the surrounding liquid. The CMC of a surfactant in an aqueous solution can be determined by a person skilled in the art using techniques known in the art. For example, the CMC of a surfactant can be determined by measuring changes in the conductance or surface tension of the solution at different concentrations of the surfactant.

[2] = literature value (footnotes a-d); cited from earlier work
[3] = Ion flotation of arsenic solution in bubble column, As by ICP-MS; conditions: for Arsenic removal after 90 minutes / arsenic removal: flotation; for Arsenic removal after 90 minutes: 5 ppm arsenic solution; for arsenic removal / Adsorption (%): time not stated
Method: (§1) An ICP-MS (Perkin Elmer, NexION 300D with Universal cell technology) was used to determine the arsenic, mercury and lead solution concentrations.
In a typical experiment, 0.01 M of the single chain octanoyl-cysteine surfactant was dissolved (with stirring and heating to not more than 65° C.) in a solution of arsenic (HAsO4^2−) 5 ppm containing NaOH 0.1 M (to keep the pH at about 8), which was then made up to 100 ml using Milli-Q water.
Two samples were taken after 30, 60 and 90 minutes and the arsenic concentration of each sample was determined by ICP-MS. The upper outlet foam was also collected in a waste container using an outlet tube. […]

[4] = for As(III) / As(V) / Total As removal / Total As(V) reduced to As(III) / Total conc.: feed 5320.6 μg/L, 0.01M surfactant
Method: The As(V)/As(III) speciation measurements were carried out using a PE 200 Series HPLC, using a PRPX 100 Column, attached to a PE DRC-e (Dynamic Reaction Cell-e) ICPMS. 20 milli molar ammonium phosphate buffer was used as carrier solution at 1.5 ml/min with a matched Meinhart nebuliser and baffled spray chamber. The plasma conditions used were: 1500 W RF, at a gas flow rate of […].
Column solution samples after 30 minutes, and the solution remaining inside the column after 90 minutes, were sent for arsenic speciation determination analysis. It appears that after about half an hour the maximum adsorption of arsenic was obtained because no further foam was collected at the top of the column.

[5] = Ion flotation of mercury ions with octanoyl-cysteine surfactant; conditions: 5 ppm Hg, 0.01M surfactant
Method: as §1
(§2) In similar ion flotation experiments, the removal rates for low levels of mercury and lead ions were also determined using the octanoyl-cysteine surfactant. The experiments were carried out using both air and pure N2 gas.

[6] = Ion flotation of lead ions with octanoyl-cysteine surfactant; conditions: 5 ppm Pb, 0.01M surfactant
Method: as §1, §2

[7] = As in the waste collector (after 30 mins.)
[8] = As remaining in the flotation cell (after 90 mins)
[9] = 5 ppm As, 0.01M surfactant, inlet gas Air

Foaming test (Foaming test): Passed | solubility in water (in words) (Solubility in water): low solubility in water | Solubility in water up to minimum 0.01M (Solubility in water): No | solubility (Solubility in water; water): 300 µM (≈ 91 µg/mL) | CMC (in words) [1]: low CMC values
Compound: CCCCCCCCCCCC(=O)N[C@@H](CS)C(=O)O
CMC in water (M) [2]: 0.02 × 10^−3*^d M

Foaming test (Foaming test): Failed | Foaming test (Foaming test; listed as double chain-octyl isocyanate cystine): produced no foaming in solution | CMC (in words) [1]: acceptably high CMC values
Compound: CCCCCCCCNC(=O)N[C@@H](CSSC[C@H](NC(=O)NCCCCCCCC)C(=O)O)C(=O)O [D-octyl isocyanate cystine]
CMC in water (M) [2]: 0.008*^c M

Compound: CCCCCCCCSC[C@H](N)C(=O)O [S-octyl cysteine, reference compound]
Foaming test (Foaming test): Failed | Foaming test (Foaming test; listed as single chain octyl based cysteine surfactant): failed the foaming test | Adsorption after 30 min (%) ([3]; 100 ml of 5 ppm arsenic solution, surfactant 0.001 M (D-dodecanoyl cystine 0.01 × 10^−3 M)): 0% | Arsenic removal after 90 minutes [3]: 0% | arsenic removal [3]: no arsenic removal was observed | solubility in water (in words) (Solubility in water): good solubility | Solubility in water up to minimum 0.01M (Solubility in water): Yes | CMC (in words) [1]: high CMC | CMC in water (M) [2]: 0.006*^b M

Compound: CCCCCCCC(=O)N[C@@H](CS)C(=O)O [octanoyl-cysteine]
Foaming test (Foaming test): Passed | As(III) [4, 7]: 5259.4 µg/L | As(V) [4, 7]: 27.9 µg/L | Total As removal [4, 7]: 99.38% | Total As(V) reduced to As(III) [4, 7]: 99.47% | Total conc. [4, 7]: 5287.4 µg/L | Total As(V) reduced to As(III) ([4]; As in the waste collector (after 30 mins.), listed as single chain octanoyl-cysteine): about 99.47% | As(III) [4, 8]: 6.2 µg/L | As(V) [4, 8]: 27.1 µg/L | Total As removal [4, 8]: 99.38% | Total As(V) reduced to As(III) [4, 8]: 99.49% | Total conc. [4, 8]: 33.2 µg/L | Total As removal ([4]; As remaining in the flotation cell (after 90 mins), listed as single chain octanoyl-cysteine): 99.38% | As (V) remaining in the column reduced to As (III) ([4]; between the first 30 mins and 90 minutes, samples from inside the column): 0.02% | Adsorption after 30 min (%) ([5]; inlet gas Air): 99.6% | Adsorption after 60 min (%) ([5]; inlet gas Air): 99.6% | Adsorption after 30 min (%) ([5]; inlet gas N2): 99.59% | Adsorption after 60 min (%) ([5]; inlet gas N2): 99.96% | Adsorption after 30 min (%) [3, 9]: 72.6% | Adsorption after 60 min (%) [3, 9]: 99.88% | Adsorption (%) ([3]; 100 ml of 5 ppm arsenic solution, purified product, Air): 99.9 (Air) % | Adsorption (%) ([3]; 100 ml of 5 ppm arsenic solution, purified product, N2 gas, listed as single chain octanoyl cysteine): 98.6 (N2) % and 99.4 (N2) % | Adsorption (%) ([3]; 100 ml of 5 ppm arsenic solution, raw product, N2 gas, listed as single chain octanoyl cysteine): 93.8 (N2) % and 88.2 (N2) % | Arsenic removal after 90 minutes [3]: 99.4% | arsenic removal [3]: 99.00% | average removal of arsenic ([3]; tests 1 and 2, raw unpurified product, 5 ppm feeding solution, after 90 minutes): 91.00% | average removal of arsenic ([3]; tests 3 and 4, purified (2 times recrystallized) product, after 30 minutes): 99.00% | Solubility in water up to minimum 0.01M (Solubility in water): Yes | Adsorption after 30 min (%) ([6]; inlet gas Air): 92% | Adsorption after 60 min (%) ([6]; inlet gas Air): 99.1% | Adsorption after 30 min (%) ([6]; inlet gas N2): 94.9% | Adsorption after 60 min (%) ([6]; inlet gas N2): 99.4% | CMC in water (M) [2]: 0.12*^a M
